Laboratory results taken from publication PMC7026418, “The kinase polypharmacology landscape of clinical PARP inhibitors” (Scientific Reports, 2020).
Read-outs that look alike come from different tables or passages of the source. One block for each compound: values may come before it.

Assays:
Experiment in all cases: biochemical
Set-up in all cases: DiscoveRx KINOMEscan active site-directed competition binding; percent of control kinase bound to immobilised ligand
MAP4K3 = target: T1, MAP4K3 (Homo sapiens, UniProt Q8IVH8)
T1 sequence (Q8IVH8 1-894): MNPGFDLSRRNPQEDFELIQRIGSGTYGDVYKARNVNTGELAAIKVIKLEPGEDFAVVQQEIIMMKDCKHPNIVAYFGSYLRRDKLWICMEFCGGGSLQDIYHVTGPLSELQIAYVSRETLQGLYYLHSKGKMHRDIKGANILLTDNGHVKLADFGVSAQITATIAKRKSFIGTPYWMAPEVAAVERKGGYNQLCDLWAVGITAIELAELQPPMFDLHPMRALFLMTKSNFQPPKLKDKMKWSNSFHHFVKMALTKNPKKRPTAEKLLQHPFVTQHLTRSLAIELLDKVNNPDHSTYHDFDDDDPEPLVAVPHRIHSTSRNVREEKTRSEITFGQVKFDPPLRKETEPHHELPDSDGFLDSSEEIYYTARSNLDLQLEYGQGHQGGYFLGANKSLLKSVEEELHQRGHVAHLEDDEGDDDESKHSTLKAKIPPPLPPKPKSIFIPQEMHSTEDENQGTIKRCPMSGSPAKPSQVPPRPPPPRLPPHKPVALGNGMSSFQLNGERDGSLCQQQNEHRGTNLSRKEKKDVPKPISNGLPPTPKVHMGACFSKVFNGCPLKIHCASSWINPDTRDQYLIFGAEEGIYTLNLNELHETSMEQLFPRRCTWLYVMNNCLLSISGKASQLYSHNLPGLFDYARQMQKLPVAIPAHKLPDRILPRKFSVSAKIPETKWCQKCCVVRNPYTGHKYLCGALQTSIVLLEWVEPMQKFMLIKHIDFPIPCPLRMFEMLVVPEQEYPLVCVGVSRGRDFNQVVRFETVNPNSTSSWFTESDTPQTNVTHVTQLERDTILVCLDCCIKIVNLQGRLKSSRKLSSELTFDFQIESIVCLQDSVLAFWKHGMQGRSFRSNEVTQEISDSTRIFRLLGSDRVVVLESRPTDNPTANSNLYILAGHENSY

MYO3B = target: T2, MYO3B (Homo sapiens, UniProt Q8WXR4)
T2 sequence (Q8WXR4 1-1341): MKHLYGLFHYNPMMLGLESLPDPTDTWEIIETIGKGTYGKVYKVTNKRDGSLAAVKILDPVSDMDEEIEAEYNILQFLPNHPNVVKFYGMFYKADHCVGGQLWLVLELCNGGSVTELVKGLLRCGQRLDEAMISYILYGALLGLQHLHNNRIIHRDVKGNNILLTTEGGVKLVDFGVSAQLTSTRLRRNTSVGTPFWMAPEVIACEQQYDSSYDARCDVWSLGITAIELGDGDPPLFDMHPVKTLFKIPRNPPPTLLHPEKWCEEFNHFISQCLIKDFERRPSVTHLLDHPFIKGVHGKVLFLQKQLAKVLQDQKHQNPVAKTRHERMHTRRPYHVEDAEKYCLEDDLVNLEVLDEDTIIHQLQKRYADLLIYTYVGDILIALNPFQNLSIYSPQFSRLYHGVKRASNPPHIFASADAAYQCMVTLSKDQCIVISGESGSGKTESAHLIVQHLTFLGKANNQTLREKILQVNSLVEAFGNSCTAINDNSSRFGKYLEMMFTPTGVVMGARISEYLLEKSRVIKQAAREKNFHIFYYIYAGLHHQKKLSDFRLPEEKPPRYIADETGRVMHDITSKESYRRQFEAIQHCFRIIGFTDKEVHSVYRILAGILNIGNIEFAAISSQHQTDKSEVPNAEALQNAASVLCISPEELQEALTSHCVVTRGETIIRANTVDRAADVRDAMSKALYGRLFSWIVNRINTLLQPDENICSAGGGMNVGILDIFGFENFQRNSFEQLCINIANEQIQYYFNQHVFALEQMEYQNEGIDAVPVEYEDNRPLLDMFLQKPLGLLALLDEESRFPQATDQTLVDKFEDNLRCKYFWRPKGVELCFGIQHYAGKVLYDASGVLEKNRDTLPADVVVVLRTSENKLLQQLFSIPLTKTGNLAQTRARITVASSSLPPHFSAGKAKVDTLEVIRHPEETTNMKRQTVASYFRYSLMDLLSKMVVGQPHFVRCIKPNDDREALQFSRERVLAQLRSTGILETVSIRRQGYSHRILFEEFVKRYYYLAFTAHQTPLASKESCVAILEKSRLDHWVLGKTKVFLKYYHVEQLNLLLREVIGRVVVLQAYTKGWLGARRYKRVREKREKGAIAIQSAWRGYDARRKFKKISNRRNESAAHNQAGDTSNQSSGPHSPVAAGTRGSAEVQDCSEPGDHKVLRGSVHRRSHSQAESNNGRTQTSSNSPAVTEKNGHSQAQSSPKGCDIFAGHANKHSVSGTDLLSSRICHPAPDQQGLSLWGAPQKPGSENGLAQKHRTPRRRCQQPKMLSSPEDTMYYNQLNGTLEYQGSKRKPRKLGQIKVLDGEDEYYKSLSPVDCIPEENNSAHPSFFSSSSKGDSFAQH

PFTAIRE2 = target: T3, PFTAIRE2 (Homo sapiens, UniProt Q96Q40)
T3 construct: gene CDK15

QSK = target: T4, QSK (Homo sapiens, UniProt Q9Y2K2)
T4 construct: gene SIK3

SGK = target: T5, SGK (Homo sapiens, UniProt O00141)
T5 construct: gene SGK1
T5 sequence (O00141 1-431): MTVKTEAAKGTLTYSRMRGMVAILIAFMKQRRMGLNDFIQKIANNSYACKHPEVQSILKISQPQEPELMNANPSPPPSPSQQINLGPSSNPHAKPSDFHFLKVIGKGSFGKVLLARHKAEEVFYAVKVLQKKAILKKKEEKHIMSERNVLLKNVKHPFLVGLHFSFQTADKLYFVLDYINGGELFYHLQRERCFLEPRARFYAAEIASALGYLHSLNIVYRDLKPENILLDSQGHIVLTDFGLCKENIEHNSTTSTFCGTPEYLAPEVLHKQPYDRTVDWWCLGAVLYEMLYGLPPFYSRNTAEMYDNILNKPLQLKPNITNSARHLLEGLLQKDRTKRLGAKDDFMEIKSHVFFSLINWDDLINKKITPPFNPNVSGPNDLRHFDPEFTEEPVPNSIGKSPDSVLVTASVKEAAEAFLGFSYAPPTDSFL

[1] = read-out: Niraparib (MK-4827) / %Ctrl @ 10000nM
[2] = read-out: Olaparib / %Ctrl @ 10000nM
[3] = read-out: Rucaparib / %Ctrl @ 10000nM, binding competition, % of control
[4] = read-out: Talazoparib (BMN 673) / %Ctrl @ 10000nM

T4 sequence (Q9Y2K2 whole entry): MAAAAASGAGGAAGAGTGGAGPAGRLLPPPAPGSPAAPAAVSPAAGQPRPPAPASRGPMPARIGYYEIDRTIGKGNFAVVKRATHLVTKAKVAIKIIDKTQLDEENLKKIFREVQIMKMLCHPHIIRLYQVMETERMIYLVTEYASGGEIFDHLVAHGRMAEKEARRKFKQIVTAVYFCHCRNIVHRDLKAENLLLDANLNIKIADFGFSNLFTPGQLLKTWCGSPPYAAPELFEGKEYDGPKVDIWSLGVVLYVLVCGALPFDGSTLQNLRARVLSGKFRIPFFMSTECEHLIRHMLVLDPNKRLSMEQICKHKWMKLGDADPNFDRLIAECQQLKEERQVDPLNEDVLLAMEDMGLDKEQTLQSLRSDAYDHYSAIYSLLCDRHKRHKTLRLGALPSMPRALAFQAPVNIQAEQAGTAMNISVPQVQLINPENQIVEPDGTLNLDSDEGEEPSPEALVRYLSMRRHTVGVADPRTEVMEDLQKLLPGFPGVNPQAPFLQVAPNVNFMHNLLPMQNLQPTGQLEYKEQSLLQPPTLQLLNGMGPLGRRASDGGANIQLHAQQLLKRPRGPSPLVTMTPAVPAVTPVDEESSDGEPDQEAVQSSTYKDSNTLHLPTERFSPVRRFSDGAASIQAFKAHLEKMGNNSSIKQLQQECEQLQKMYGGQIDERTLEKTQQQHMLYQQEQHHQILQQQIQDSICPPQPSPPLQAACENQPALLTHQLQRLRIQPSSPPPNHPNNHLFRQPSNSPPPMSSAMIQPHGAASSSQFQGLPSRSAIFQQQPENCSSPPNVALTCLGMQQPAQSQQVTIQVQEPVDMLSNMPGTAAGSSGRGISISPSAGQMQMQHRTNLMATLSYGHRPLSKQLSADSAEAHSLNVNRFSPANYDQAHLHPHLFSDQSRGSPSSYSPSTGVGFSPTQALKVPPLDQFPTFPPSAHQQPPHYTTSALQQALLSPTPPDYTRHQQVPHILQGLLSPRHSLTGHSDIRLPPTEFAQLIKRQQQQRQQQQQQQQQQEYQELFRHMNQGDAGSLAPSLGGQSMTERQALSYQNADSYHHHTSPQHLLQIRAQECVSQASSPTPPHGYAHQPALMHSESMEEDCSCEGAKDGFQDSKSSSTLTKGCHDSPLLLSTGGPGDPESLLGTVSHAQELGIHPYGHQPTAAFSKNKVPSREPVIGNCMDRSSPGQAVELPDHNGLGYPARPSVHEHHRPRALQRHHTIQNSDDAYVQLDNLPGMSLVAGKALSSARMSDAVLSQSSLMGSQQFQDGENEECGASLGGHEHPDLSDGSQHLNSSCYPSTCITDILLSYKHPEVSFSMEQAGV
T3 sequence (Q96Q40 whole entry): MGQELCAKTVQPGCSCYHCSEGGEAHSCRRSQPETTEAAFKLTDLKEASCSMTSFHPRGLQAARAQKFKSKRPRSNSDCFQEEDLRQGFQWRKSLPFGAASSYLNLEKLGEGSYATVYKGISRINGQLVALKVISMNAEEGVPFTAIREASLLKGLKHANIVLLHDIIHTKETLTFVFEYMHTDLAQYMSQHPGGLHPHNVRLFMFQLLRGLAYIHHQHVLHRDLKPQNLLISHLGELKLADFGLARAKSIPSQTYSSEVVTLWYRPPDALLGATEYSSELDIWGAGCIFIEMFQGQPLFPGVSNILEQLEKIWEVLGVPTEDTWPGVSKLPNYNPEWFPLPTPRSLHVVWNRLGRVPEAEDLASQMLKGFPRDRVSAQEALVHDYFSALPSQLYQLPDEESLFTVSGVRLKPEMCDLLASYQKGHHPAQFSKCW

SMILES: NC(=O)c1cccc2cn(-c3ccc([C@@H]4CCCNC4)cc3)nc12 [Niraparib]
percent of control binding at 10 µM (MAP4K3; [1]): 84%
percent of control binding at 10 µM (MYO3B; [1]): 56%
percent of control binding at 10 µM (PFTAIRE2; [1]): 96%
percent of control binding at 10 µM (QSK; [1]): 93%
percent of control binding at 10 µM (SGK; [1]): 89%

percent of control binding at 10 µM (MAP4K3; [2]): 100%
percent of control binding at 10 µM (MYO3B; [2]): 75%
percent of control binding at 10 µM (PFTAIRE2; [2]): 100%
percent of control binding at 10 µM (QSK; [2]): 83%
percent of control binding at 10 µM (SGK; [2]): 97%
SMILES: O=C(c1cc(Cc2n[nH]c(=O)c3ccccc23)ccc1F)N1CCN(C(=O)C2CC2)CC1 [Olaparib]

percent of control binding at 10 µM (MAP4K3; [3]): 91%
percent of control binding at 10 µM (MYO3B; [3]): 62%
percent of control binding at 10 µM (PFTAIRE2; [3]): 100%
percent of control binding at 10 µM (QSK; [3]): 77%
percent of control binding at 10 µM (SGK; [3]): 61%
SMILES: CNCc1ccc(-c2[nH]c3cc(F)cc4c3c2CCNC4=O)cc1 [Rucaparib]

percent of control binding at 10 µM (MAP4K3; [4]): 100%
percent of control binding at 10 µM (MYO3B; [4]): 97%
percent of control binding at 10 µM (PFTAIRE2; [4]): 100%
percent of control binding at 10 µM (QSK; [4]): 75%
percent of control binding at 10 µM (SGK; [4]): 92%
SMILES: Cn1ncnc1[C@H]1c2n[nH]c(=O)c3cc(F)cc(c23)N[C@@H]1c1ccc(F)cc1 [Talazoparib]
